# Experimental data as given in patent publication US20120309734A1, “COMBRETASTATIN DERIVATIVES AND USES THEREFOR” (priority 2009, published 2012).
# Tests used:
# [1] = tested on: A498; test: NCI60 cell line screen; conditions: Homo sapiens
# [2] = tested on: DU-145; test: NCI60 cell line screen; conditions: Homo sapiens
# [3] = tested on: LOX IMVI; test: NCI60 cell line screen; conditions: Homo sapiens
# [4] = tested on: HOP-92; test: NCI60 cell line screen; conditions: Homo sapiens
# [5] = tested on: MCF-7; test: NCI60 cell line screen; conditions: Homo sapiens, MCF7
# [6] = tested on: M14; test: NCI60 cell line screen; conditions: Homo sapiens
# [7] = target: T1, p-glycoprotein (Homo sapiens, UniProt P08183); test: Anti-proliferative effects in multi-drug resistant cells, conclusion on efflux; assay type: cell-based; conditions: concluded from resistance factors
# T1 construct: HL-60-MDR (overexpress p-glycoprotein); endogenous in cells; host or cells: HL-60-MDR, A2780-ADR
# Method: Three drug resistant cell lines and respective parental cell lines were assessed. […] Western blot analysis confirmed the overexpression of p-glycoprotein and BCRP in respective cell lines.
# Cells were exposed to multiple concentrations of the indicated compound for 72 h. Cell viability was assessed using the Alamar blue assay and respective IC50 values were calculated. The resistance factor (RF) was calculated by dividing the IC50 of the resistant cell line/IC50 of the parental cell line.
# [8] = tested on: K-562; test: NCI60 cell line screen; conditions: Homo sapiens, K562
# [9] = tested on: EKVX; test: NCI60 cell line screen; conditions: Homo sapiens
# [10] = tested on: IGROV1; test: NCI60 cell line screen; conditions: Homo sapiens, IGROV-1
# [11] = tested on: HCT-2998; test: NCI60 cell line screen
# [12] = tested on: primary endothelial cell (HUVEC); test: Endothelial cell proliferation, AlamarBlue; assay type: cell-based; conditions: Homo sapiens, 72 h, read-out: IC50, proliferation of HUVECs
# Method: A range of concentrations of cis β-lactam 4, were tested on primary endothelial cell (HUVEC) proliferation. HUVEC cells (20,000 cells/well) were seeded onto 96-well plates for 24 h and treated in triplicate with vehicle alone (1% (v/v) ethanol) or a range of concentrations of compound 4 for 72 h. The cells were then incubated in 10% (v/v) AlamarBlue and its reduction to a fluorescent state measured at excitation 544 nm and emission 590 nm using a multi-well fluorimeter. The results were expressed as the percentage cell proliferation relative to vehicle-treated control cells (100%). Values represent the mean±the S.E.M for three separate experiments. IC50 values were obtained using Prism GraphPad 4.
# Pooled primary human umbilical vein endothelial cells (HUVECs) and their associated reagents were all obtained from Cascade Biologics, Invitrogen, Carlsbad, Calif., USA. HUVECs were maintained between passages 1-4 in Medium 200 supplemented with LSGS (low serum growth factor supplement) and utilised for experiments at passage 4.
# [13] = tested on: PC-3; test: NCI60 cell line screen; conditions: Homo sapiens
# [14] = tested on: NCI-H226; test: NCI60 cell line screen; conditions: Homo sapiens
# [15] = tested on: SW-620; test: NCI60 cell line screen; conditions: Homo sapiens
# [16] = tested on: TK-10; test: NCI60 cell line screen; conditions: Homo sapiens
# [17] = tested on: primary CML cells (BCR-ABL-positive); test: Apoptosis in ex vivo CML cells, annexin V staining; assay type: cell-based, human; conditions: 72 h
# Description: This study is the first pre-clinical evaluation of combretastatins in the treatment of chemotherapy naive and patients with acquired imatinib mesylate resistance (refractory or relapsed disease despite adequate dose and duration). Imatinib mesylate is the first line treatment in BCR-ABL-positive CML chemotherapy. BCR-ABL, a constitutively active protein tyrosine kinase is a product of the Philadelphia chromosome (Ph) translocation t(9;22) and plays a central role in the pathogenesis of CML. […] All cells were treated with a clinically achievable concentration of imatinib mesylate (indicated as STI in FIG. 3) [250 nM]. […] The percentage apoptosis was determined by flow cytometric analysis of annexin-V stained cells.
# The percentage of apoptosis in ex-vivo CML cells was determined by annexin V staining. […] Cells were collected by centrifugation at 400×g for 5 min and resuspended in anti-CD-45 diluted 1:50 in RPMI medium. Following a 10 min incubation in the dark at room temperature, cells were centrifuged and washed in Annexin binding buffer (Biosource, Nivelles, Belgium). Cells were again centrifuged and resuspended in Annexin-V-FITC (IQ products, Netherlands) diluted in Annexin binding buffer (1:50). Samples were next incubated in the dark on ice for 15 min. Annexin binding buffer (1 ml) was added to each sample. Samples were collected by centrifugation and resuspended in 0.5 ml of Annexin binding buffer. Cells were read immediately by flow cytometry and analysed by Cellquest software. CML cells were selected and gated based on their low to medium side scatter and low CD45 expression.
# [18] = tested on: KM12; test: NCI60 cell line screen; conditions: Homo sapiens
# [19] = Stability by HPLC at three pH values; assay type: physicochemical; conditions: for half-life: all pH values (4, 7.4, 9), HPLC; for stability at varying pH: pH 4, 7.4, 9, HPLC
# Method: The stability of β-lactam compounds 4, 8 and 12 was assessed by HPLC at three different pH values. […] The half-lives of 8 and 12 were both greater than 24 hours at all pH values. The stability of three ester prodrug derivatives of 4, i.e. 29, 30 and 31, was also assessed (FIG. 6).
# [20] = tested on: HOP-62; test: NCI60 cell line screen; conditions: Homo sapiens
# [21] = tested on: MOLT-4; test: NCI60 cell line screen; conditions: Homo sapiens
# T1 sequence (P08183 whole entry): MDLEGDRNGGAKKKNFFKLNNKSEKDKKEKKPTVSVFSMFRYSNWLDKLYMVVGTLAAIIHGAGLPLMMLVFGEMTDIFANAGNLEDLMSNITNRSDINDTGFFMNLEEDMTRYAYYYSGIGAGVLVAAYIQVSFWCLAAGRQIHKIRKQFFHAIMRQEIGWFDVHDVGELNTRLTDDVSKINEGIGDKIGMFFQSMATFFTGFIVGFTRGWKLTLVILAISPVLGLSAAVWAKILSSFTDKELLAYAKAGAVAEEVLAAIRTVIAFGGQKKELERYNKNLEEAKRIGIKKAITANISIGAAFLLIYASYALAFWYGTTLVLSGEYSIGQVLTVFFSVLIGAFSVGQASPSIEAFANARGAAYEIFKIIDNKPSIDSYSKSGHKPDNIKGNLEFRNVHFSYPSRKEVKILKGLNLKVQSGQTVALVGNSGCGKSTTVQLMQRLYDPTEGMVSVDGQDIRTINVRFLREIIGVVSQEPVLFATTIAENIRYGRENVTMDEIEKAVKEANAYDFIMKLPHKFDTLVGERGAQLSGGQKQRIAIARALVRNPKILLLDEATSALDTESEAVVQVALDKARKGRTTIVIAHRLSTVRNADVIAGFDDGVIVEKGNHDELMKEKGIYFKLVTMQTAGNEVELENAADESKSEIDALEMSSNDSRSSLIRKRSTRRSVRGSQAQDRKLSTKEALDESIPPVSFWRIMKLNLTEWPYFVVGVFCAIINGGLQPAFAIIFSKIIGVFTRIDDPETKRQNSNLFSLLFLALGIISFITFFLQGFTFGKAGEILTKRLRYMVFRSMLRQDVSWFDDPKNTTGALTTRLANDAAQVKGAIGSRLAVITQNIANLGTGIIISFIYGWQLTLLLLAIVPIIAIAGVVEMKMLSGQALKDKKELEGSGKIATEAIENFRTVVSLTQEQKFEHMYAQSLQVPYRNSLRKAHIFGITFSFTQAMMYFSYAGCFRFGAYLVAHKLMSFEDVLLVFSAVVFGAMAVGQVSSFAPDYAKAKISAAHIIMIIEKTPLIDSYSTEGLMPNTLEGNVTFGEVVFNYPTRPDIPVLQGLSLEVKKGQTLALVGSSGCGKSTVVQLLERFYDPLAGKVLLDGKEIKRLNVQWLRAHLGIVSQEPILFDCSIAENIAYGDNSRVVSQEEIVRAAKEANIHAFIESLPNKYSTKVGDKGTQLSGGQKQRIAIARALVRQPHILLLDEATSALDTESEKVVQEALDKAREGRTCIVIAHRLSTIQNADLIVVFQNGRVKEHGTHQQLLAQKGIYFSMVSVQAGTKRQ
Structure (SMILES),GI50 [1] [nM],GI50 [2] [nM],GI50 [3] [nM],GI50 [4] [nM],GI50 [5] [nM],GI50 [6] [nM],GI50 [8] [nM],GI50 [9] [nM],GI50 [10] [nM],GI50 [11] [nM],melting point [°C],GI50 [13] [nM],GI50 [14] [nM],GI50 [15] [nM],GI50 [16] [nM],GI50 [18] [nM],half-life [19] [h],stability at varying pH [19],GI50 [20] [nM],other results
"COc1ccc(C2C(c3ccccc3)C(=O)N2c2cc(OC)c(OC)c(OC)c2)cc1O (stereo not drawn) [Compound 4, 4-(3-Hydroxy-4-methoxyphenyl)-3-phenyl-1-(3,4,5-trimethoxyphenyl)-azetidin-2-one]",< 10,< 10,< 10,5150,< 10,< 10,< 10,< 10,< 10,35,110,< 10,< 10,< 10,< 10,< 10,,,,"substrate for the p-glycoprotein [7]: poor substrates for the p-glycoprotein; IC50 [12]: 4 nM; apoptosis induction compared with imatinib mesylate ([17]; 250 nM each, patient samples): more effective inducers of apoptosis than imatinib mesylate; apoptosis in primary CML cells ([17]; 250 nM, chemotherapy naïve (4 samples) and imatinib mesylate resistant (2 samples)): induced apoptosis"
"COc1ccc(C2C(c3ccccc3)C(=O)N2c2cc(OC)c(OC)c(OC)c2)cc1 (stereo not drawn) [Compound 8, 4-(4-Methoxy-phenyl)-3-phenyl-1-(3,4,5-trimethoxy-phenyl)-azetidin-2-one]",37.5,56.9,67.6,22700,35.1,132,29.1,352,285,349,108,,263,48.7,6780,42.7,> 24,least stable at acidic pH 4 and relatively stable at pH's 7.4 and 9,605,GI50 [21]: 31.6 nM
"COc1ccc(C2C(c3cccs3)C(=O)N2c2cc(OC)c(OC)c(OC)c2)cc1 (stereo not drawn) [Compound 12, 4-(4-Methoxyphenyl)-3-thiophen-2-yl-1-(3,4,5-trimethoxyphenyl)-azetidin-2-one]",< 10,< 10,< 10,51,< 10,< 10,,34,20,30,115,< 10,< 10,10,< 10,< 10,> 24,least stable at acidic pH 4 and relatively stable at pH's 7.4 and 9,70,
